Assay: (§1) The drug is tested on Z-001 corresponding to mouse gut metagenome with ENA study accession number: PRJEB37062 and ENA sample accession number: ERS12561801 for biotransformation under anaerobic condition. The drug concentrations were measured over 9 timepoints collected between 0 and 24 hours of incubation by liquid-chromatography-coupled mass spectrometry (LC–MS)
Conditions: 2 µM
Note: call rule not given here.

Bacterial Biotransformation | SMILES
Compound NOT metabolized | CNNCc1ccc(C(=O)NC(C)C)cc1 [PROCARBAZINE]

Assay: as §1, with “WLS-069” for “Z-001”, “human” for “mouse”, “ERS12561748” for “ERS12561801”
Conditions: 2 µM

Bacterial Biotransformation | SMILES
Compound NOT metabolized | CN(C)CCc1c[nH]c2ccc(CS(=O)(=O)N3CCCC3)cc12 [ALMOTRIPTAN]
Compound metabolized | CNNCc1ccc(C(=O)NC(C)C)cc1 [PROCARBAZINE]

Assay: as §1, with “WLS-039” for “Z-001”, “human” for “mouse”, “ERS12561746” for “ERS12561801”
Conditions: 2 µM

Bacterial Biotransformation | SMILES
Compound NOT metabolized | CN(C)CCc1c[nH]c2ccc(CS(=O)(=O)N3CCCC3)cc12 [ALMOTRIPTAN]
Compound NOT metabolized | CNNCc1ccc(C(=O)NC(C)C)cc1 [PROCARBAZINE]

Assay: as §1, with “WLS-038” for “Z-001”, “human” for “mouse”, “ERS12561745” for “ERS12561801”
Conditions: 2 µM

Bacterial Biotransformation | SMILES
Compound NOT metabolized | CN(C)CCc1c[nH]c2ccc(CS(=O)(=O)N3CCCC3)cc12 [ALMOTRIPTAN]
Compound NOT metabolized | CNNCc1ccc(C(=O)NC(C)C)cc1 [PROCARBAZINE]

Conditions: human gut metagenome, 24 h, 2 µM

Bacterial Biotransformation | SMILES
Compound NOT metabolized | CN(C)CCc1c[nH]c2ccc(CS(=O)(=O)N3CCCC3)cc12 [ALMOTRIPTAN]
Compound NOT metabolized | CNNCc1ccc(C(=O)NC(C)C)cc1 [PROCARBAZINE]

Conditions: human gut metagenome, 24 h, 2 µM
Remark: another data set of the same source

Bacterial Biotransformation | SMILES
Compound NOT metabolized | CN(C)CCc1c[nH]c2ccc(CS(=O)(=O)N3CCCC3)cc12 [ALMOTRIPTAN]
Compound NOT metabolized | CNNCc1ccc(C(=O)NC(C)C)cc1 [PROCARBAZINE]

Conditions: human gut metagenome, 24 h, 2 µM
Remark: another data set of the same source

Bacterial Biotransformation | SMILES
Compound NOT metabolized | CN(C)CCc1c[nH]c2ccc(CS(=O)(=O)N3CCCC3)cc12 [ALMOTRIPTAN]
Compound NOT metabolized | CNNCc1ccc(C(=O)NC(C)C)cc1 [PROCARBAZINE]

Conditions: human gut metagenome, 24 h, 2 µM
Remark: another data set of the same source

Bacterial Biotransformation | SMILES
Compound NOT metabolized | CN(C)CCc1c[nH]c2ccc(CS(=O)(=O)N3CCCC3)cc12 [ALMOTRIPTAN]
Compound NOT metabolized | CNNCc1ccc(C(=O)NC(C)C)cc1 [PROCARBAZINE]

Conditions: human gut metagenome, 24 h, 2 µM
Remark: another data set of the same source

Bacterial Biotransformation | SMILES
Compound NOT metabolized | CN(C)CCc1c[nH]c2ccc(CS(=O)(=O)N3CCCC3)cc12 [ALMOTRIPTAN]
Compound NOT metabolized | CNNCc1ccc(C(=O)NC(C)C)cc1 [PROCARBAZINE]

Conditions: human gut metagenome, 24 h, 2 µM
Remark: another data set of the same source

Bacterial Biotransformation | SMILES
Compound NOT metabolized | CN(C)CCc1c[nH]c2ccc(CS(=O)(=O)N3CCCC3)cc12 [ALMOTRIPTAN]

Conditions: human gut metagenome, 24 h, 2 µM
Remark: another data set of the same source

Bacterial Biotransformation | SMILES
Compound metabolized | CN(C)CCc1c[nH]c2ccc(CS(=O)(=O)N3CCCC3)cc12 [ALMOTRIPTAN]
Compound metabolized | CNNCc1ccc(C(=O)NC(C)C)cc1 [PROCARBAZINE]

Conditions: human gut metagenome, 24 h, 2 µM
Remark: another data set of the same source

Bacterial Biotransformation | SMILES
Compound NOT metabolized | CN(C)CCc1c[nH]c2ccc(CS(=O)(=O)N3CCCC3)cc12 [ALMOTRIPTAN]
Compound NOT metabolized | CNNCc1ccc(C(=O)NC(C)C)cc1 [PROCARBAZINE]

Conditions: human gut metagenome, 24 h, 2 µM
Remark: another data set of the same source

Bacterial Biotransformation | SMILES
Compound NOT metabolized | CN(C)CCc1c[nH]c2ccc(CS(=O)(=O)N3CCCC3)cc12 [ALMOTRIPTAN]

Conditions: human gut metagenome, 24 h, 2 µM
Remark: another data set of the same source

Bacterial Biotransformation | SMILES
Compound NOT metabolized | CN(C)CCc1c[nH]c2ccc(CS(=O)(=O)N3CCCC3)cc12 [ALMOTRIPTAN]
Compound metabolized | CNNCc1ccc(C(=O)NC(C)C)cc1 [PROCARBAZINE]

Conditions: human gut metagenome, 24 h, 2 µM
Remark: another data set of the same source

Bacterial Biotransformation | SMILES
Compound NOT metabolized | CN(C)CCc1c[nH]c2ccc(CS(=O)(=O)N3CCCC3)cc12 [ALMOTRIPTAN]
Compound NOT metabolized | CNNCc1ccc(C(=O)NC(C)C)cc1 [PROCARBAZINE]

Conditions: human gut metagenome, 24 h, 2 µM
Remark: another data set of the same source

Bacterial Biotransformation | SMILES
Compound NOT metabolized | CN(C)CCc1c[nH]c2ccc(CS(=O)(=O)N3CCCC3)cc12 [ALMOTRIPTAN]
Compound NOT metabolized | CNNCc1ccc(C(=O)NC(C)C)cc1 [PROCARBAZINE]
